Experiments:
Test in all cases: Test B pre-/postemergence plant response
Format in all cases: in vivo
[1] = system: Italian ryegrass (Lolium multiflorum)
Outline: (§1)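 Steps: sow seed in loam–sand soil and spray preemergence, or grow plants in peat-based medium to 1–4 leaves (2–18 cm) and spray postemergence; formulation is non-phytotoxic solvent plus surfactant; hold in greenhouse 13–15 days; score visually vs controls, 0 = no effect, 100 = complete control.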

[2] = system: Surinam grass (Brachiaria decumbens)
Outline: as §1

corn (Zea mays) = system: corn (Zea mays)
Outline: as §1

[3] = system: galium (catchweed bedstraw, Galium aparine)
Outline: as §1

[4] = system: goosegrass (Eleusine indica)
Outline: as §1

[5] = system: lambsquarters (Chenopodium album)
Outline: as §1

[6] = system: large crabgrass (Digitaria sanguinalis)
Outline: as §1

[7] = system: nightshade (eastern black nightshade, Solanum ptycanthum); settings: Preemergence
Outline: as §1

[8] = system: pigweed (Amaranthus retroflexus)
Outline: as §1

[9] = system: sunflower (common oilseed sunflower, Helianthus annuus); settings: Preemergence
Outline: as §1

[10] = system: woolly cupgrass (Eriochloa villosa)
Outline: as §1

[11] = 31 g ai/ha, postemergence, scale 0 to 100, 0 is no effect, 100 is complete control
[12] = Postemergence, 62 g ai/ha, scale 0 (no effect) to 100 (complete control), 13 to 15 days
[13] = Postemergence, 125 g ai/ha, visual rating after 13 to 15 days, scale 0 (no effect) to 100 (complete control)
[14] = Postemergence, 250 g ai/ha, scale 0 to 100 (0 no effect, 100 complete control)
[15] = Preemergence, 31 g ai/ha, scale 0 to 100 (0 no effect, 100 complete control)
[16] = Preemergence, 62 g ai/ha, scale 0 to 100, 0 no effect, 100 complete control
[17] = Preemergence, 125 g ai/ha, scale 0 to 100, 0 no effect, 100 complete control
[18] = 250 g ai/ha, Preemergence, 0 to 100 scale
[19] = 31 g ai/ha, scale 0 to 100 (0 no effect, 100 complete control)
[20] = 62 g ai/ha, scale 0 to 100, 0 no effect, 100 complete control
[21] = 125 g ai/ha, scale 0 to 100, 0 no effect, 100 complete control
[22] = Postemergence, 31 g ai/ha, 0 to 100 scale (0 no effect, 100 complete control)
[23] = Postemergence, 250 g ai/ha, scale 0 to 100 (0 no effect, 100 complete control), 13 to 15 days
[24] = Postemergence, 62 g ai/ha, scale 0 to 100 (0 no effect, 100 complete control)
[25] = Preemergence, 250 g ai/ha, 0 to 100 scale
[26] = Postemergence, 125 g ai/ha, scale 0 to 100 (0 no effect, 100 complete control)

SMILES: Cc1cccc(-n2c(-c3ccccc3)ncc(C(=O)C3=C(O)CCCC3=O)c2=O)c1F [Compound 58]
- Plant response rating, Ryegrass, Italian [1, 11]: 0
- Plant response rating, Ryegrass, Italian [1, 12]: 0
- Plant response rating, Ryegrass, Italian [1, 13]: 30
- Plant response rating, Ryegrass, Italian [1, 14]: 70
- Plant response rating, Ryegrass, Italian [1, 15]: 0
- Plant response rating, Ryegrass, Italian [1, 16]: 0
- Plant response rating, Ryegrass, Italian [1, 17]: 0
- Plant response rating, Surinam Grass [2, 11]: 70
- Plant response rating, Surinam Grass [2, 12]: 80
- Plant response rating, Surinam Grass [2, 13]: 95
- Plant response rating, Surinam Grass [2, 14]: 98
- Plant response rating, Surinam Grass [2, 15]: 40
- Plant response rating, Surinam Grass [2, 16]: 65
- Plant response rating, Surinam Grass [2, 17]: 85
- Plant response rating, Corn (corn (Zea mays); [11]): 0
- Plant response rating, Corn (corn (Zea mays); [18]): 0
- Plant response rating, Corn (corn (Zea mays); [12]): 45
- Plant response rating, Corn (corn (Zea mays); [13]): 65
- Plant response rating, Corn (corn (Zea mays); [14]): 80
- Plant response rating, Corn (corn (Zea mays); [15]): 0
- Plant response rating, Corn (corn (Zea mays); [16]): 0
- Plant response rating, Corn (corn (Zea mays); [17]): 0
- Plant response rating, Galium [3, 18]: 80
- Plant response rating, Galium [3, 15]: 0
- Plant response rating, Galium [3, 16]: 0
- Plant response rating, Galium [3, 17]: 30
- Plant response rating, Goosegrass [4, 11]: 70
- Plant response rating, Goosegrass [4, 18]: 100
- Plant response rating, Goosegrass [4, 12]: 75
- Plant response rating, Goosegrass [4, 13]: 85
- Plant response rating, Goosegrass [4, 14]: 90
- Plant response rating, Goosegrass [4, 15]: 95
- Plant response rating, Goosegrass [4, 16]: 98
- Plant response rating, Goosegrass [4, 17]: 100
- Plant response rating, Lambsquarters [5, 11]: 95
- Plant response rating, Lambsquarters [5, 18]: 98
- Plant response rating, Lambsquarters [5, 12]: 95
- Plant response rating, Lambsquarters [5, 13]: 100
- Plant response rating, Lambsquarters [5, 14]: 100
- Plant response rating, Lambsquarters [5, 15]: 85
- Plant response rating, Lambsquarters [5, 16]: 98
- Plant response rating, Lambsquarters [5, 17]: 98
- Plant response rating, Crabgrass, Large [6, 11]: 75
- Plant response rating, Crabgrass, Large [6, 18]: 100
- Plant response rating, Crabgrass, Large [6, 12]: 80
- Plant response rating, Crabgrass, Large [6, 13]: 90
- Plant response rating, Crabgrass, Large [6, 14]: 90
- Plant response rating, Crabgrass, Large [6, 15]: 95
- Plant response rating, Crabgrass, Large [6, 16]: 98
- Plant response rating, Crabgrass, Large [6, 17]: 98
- Plant response rating, Nightshade [7, 19]: 90
- Plant response rating, Nightshade [7, 20]: 98
- Plant response rating, Nightshade [7, 21]: 98
- Plant response rating, Pigweed [8, 11]: 80
- Plant response rating, Pigweed [8, 12]: 95
- Plant response rating, Pigweed [8, 13]: 98
- Plant response rating, Pigweed [8, 14]: 100
- Plant response rating, Pigweed [8, 15]: 85
- Plant response rating, Pigweed [8, 16]: 98
- Plant response rating, Pigweed [8, 17]: 100
- Plant response rating, Sunflower [9, 19]: 0
- Plant response rating, Sunflower [9, 20]: 55
- Plant response rating, Sunflower [9, 21]: 65
- Plant response rating, Cupgrass, Woolly [10, 11]: 65
- Plant response rating, Cupgrass, Woolly [10, 18]: 85
- Plant response rating, Cupgrass, Woolly [10, 12]: 65
- Plant response rating, Cupgrass, Woolly [10, 13]: 70
- Plant response rating, Cupgrass, Woolly [10, 14]: 95
- Plant response rating, Cupgrass, Woolly [10, 15]: 10
- Plant response rating, Cupgrass, Woolly [10, 16]: 10
- Plant response rating, Cupgrass, Woolly [10, 17]: 20

SMILES: CCCCn1c(C2CC2)ncc(C(=O)C2=C(O)CCCC2=O)c1=O [Compound 193]
- Plant response rating, Ryegrass, Italian [1, 22]: 5
- Plant response rating, Ryegrass, Italian [1, 23]: 45
- Plant response rating, Ryegrass, Italian [1, 24]: 40
- Plant response rating, Ryegrass, Italian [1, 15]: 0
- Plant response rating, Ryegrass, Italian [1, 16]: 0
- Plant response rating, Ryegrass, Italian [1, 17]: 25
- Ryegrass, Italian plant response rating [1, 25]: 45
- Plant response rating, Surinam Grass [2, 22]: 65
- Plant response rating, Surinam Grass [2, 23]: 95
- Plant response rating, Surinam Grass [2, 24]: 65
- Plant response rating, Surinam Grass [2, 15]: 0
- Plant response rating, Surinam Grass [2, 16]: 15
- Plant response rating, Surinam Grass [2, 17]: 30
- Surinam Grass plant response rating [2, 25]: 45
- Plant response rating, Corn (corn (Zea mays); [22]): 0
- Plant response rating, Corn (corn (Zea mays); [26]): 40
- Plant response rating, Corn (corn (Zea mays); [23]): 60
- Plant response rating, Corn (corn (Zea mays); [24]): 15
- Plant response rating, Corn (corn (Zea mays); [15]): 0
- Plant response rating, Corn (corn (Zea mays); [16]): 0
- Plant response rating, Corn (corn (Zea mays); [17]): 5
- Corn plant response rating (corn (Zea mays); [25]): 5
- Plant response rating, Galium [3, 22]: 75
- Plant response rating, Galium [3, 26]: 90
- Plant response rating, Galium [3, 23]: 90
- Plant response rating, Galium [3, 15]: 75
- Plant response rating, Galium [3, 16]: 100
- Plant response rating, Galium [3, 17]: 100
- Galium plant response rating [3, 25]: 100
- Plant response rating, Goosegrass [4, 22]: 85
- Plant response rating, Goosegrass [4, 26]: 98
- Plant response rating, Goosegrass [4, 23]: 100
- Plant response rating, Goosegrass [4, 24]: 95
- Plant response rating, Goosegrass [4, 15]: 98
- Plant response rating, Goosegrass [4, 16]: 100
- Plant response rating, Goosegrass [4, 17]: 100
- Goosegrass plant response rating [4, 25]: 100
- Plant response rating, Lambsquarters [5, 22]: 98
- Plant response rating, Lambsquarters [5, 26]: 98
- Plant response rating, Lambsquarters [5, 23]: 100
- Plant response rating, Lambsquarters [5, 24]: 98
- Plant response rating, Lambsquarters [5, 15]: 100
- Plant response rating, Lambsquarters [5, 16]: 100
- Plant response rating, Lambsquarters [5, 17]: 100
- Lambsquarters plant response rating [5, 25]: 100
- Plant response rating, Crabgrass, Large [6, 22]: 75
- Plant response rating, Crabgrass, Large [6, 26]: 98
- Plant response rating, Crabgrass, Large [6, 23]: 100
- Plant response rating, Crabgrass, Large [6, 24]: 90
- Plant response rating, Crabgrass, Large [6, 15]: 100
- Plant response rating, Crabgrass, Large [6, 16]: 100
- Plant response rating, Crabgrass, Large [6, 17]: 100
- Crabgrass, Large plant response rating [6, 25]: 100
- Plant response rating, Nightshade [7, 19]: 100
- Plant response rating, Nightshade [7, 20]: 100
- Plant response rating, Nightshade [7, 21]: 100
- Nightshade plant response rating ([7]; 250 g ai/ha, 0 to 100 scale): 100
- Plant response rating, Pigweed [8, 22]: 90
- Plant response rating, Pigweed [8, 23]: 100
- Plant response rating, Pigweed [8, 24]: 95
- Plant response rating, Pigweed [8, 15]: 98
- Plant response rating, Pigweed [8, 16]: 100
- Plant response rating, Pigweed [8, 17]: 100
- Pigweed plant response rating [8, 25]: 100
- Plant response rating, Sunflower [9, 19]: 70
- Plant response rating, Sunflower [9, 20]: 80
- Plant response rating, Sunflower [9, 21]: 80
- Sunflower plant response rating ([9]; 250 g ai/ha, 0 to 100 scale): 95
- Plant response rating, Cupgrass, Woolly [10, 22]: 75
- Plant response rating, Cupgrass, Woolly [10, 26]: 95
- Plant response rating, Cupgrass, Woolly [10, 23]: 98
- Plant response rating, Cupgrass, Woolly [10, 24]: 85
- Plant response rating, Cupgrass, Woolly [10, 15]: 10
- Plant response rating, Cupgrass, Woolly [10, 16]: 70
- Plant response rating, Cupgrass, Woolly [10, 17]: 80
- Cupgrass, Woolly plant response rating [10, 25]: 90
